Molecules are shown by their SMILES. Entries after “also recorded” stand apart in the source; their conditions may differ. Where two headings read alike, the source gives them in different places.

The test system of data set [1] is male or female rats. The conditions noted are these: cited from earlier work.
The test system of data set [2] is rats. The conditions noted are these: rat, in vivo; cited from earlier work.
In data set [3] the test system is mice of both sexes. Conditions: cited from earlier work.
Data set [4] relates to male Sprague Dawley rats. Conditions: cited from earlier work.
Data set [5] concerns mice. Conditions: i.p., cited from earlier work.
The conditions of data set [6]: NTX 1 mg/kg; cited from earlier work.
Data set [7] has as its target T1, delta opioid receptors (Homo sapiens, UniProt P41143). The conditions noted are these: cited from earlier work.
The target of data set [8] is T2, delta opioid receptors (Mus musculus, UniProt P32300).
T2 construct: endogenous in cells; host or cells: NG108-15
Conditions: NG108-15 cells; effect blocked by naloxone; cited from earlier work.

Data set [9] concerns the target T1, delta opioid receptors. The conditions noted are these: cited from earlier work. The source holds these as a separate data set.
The subject of data set [10] is rats. Conditions: cited from earlier work.
The subject of data set [11] is female Sprague Dawley rats. Put plainly: Open field test - locomotor activity. The format is in vivo, rat. The conditions noted are these: N=4/group; for Distance traveled over 5-min time blocks: 3 mg/kg IP 30 min before 30-min test, vs control; for Total distance traveled over entire 30-min session: 3 mg/kg IP 30 min before test. An excerpt: (§1) Animals. A total of 10 female Sprague Dawley rats (Charles River, Wilmington, MA) were used for the alcohol self-administration studies. […] These same rats were used in the cFos immunohistochemistry study. Rats were initially housed 3-5 to a cage in polypropylene cages housed in circular towers (Animal Care Systems, Inc, Centennial, CO) located within a temperature- and humidity-controlled vivarium that was maintained on a 12:12 light/dark cycle (lights on at 6 AM). Rats weighed about 250-350 gm at the start of the experiment and were at least 100 days old. Food and water were available ad libitum throughout the study. To facilitate alcohol self-administration rats were exposed to alcohol in vapor chambers (La Jolla Alcohol Research, La Jolla, CA) for 6-weeks prior to operant training using a chronic intermittent alcohol exposure (i.e., alcohol vapors were on for 14-h and off for 10-h, 5 days per week).
Open Field Test-Locomotor Activity. […] Drugs were administered 30 minutes before rats were placed into the open field chambers and distance traveled (cm) was tabulated in 5-min blocks across the 30-minute test.
Distance traveled over time was analyzed using a 4×6 repeated measures ANOVA with time (six 5-min blocks) as the repeating measure. Another ANOVA was conducted that included all three Drug conditions (MG, NTX, and MG+NTX).
(§2) Significant main effects were followed by Tukey's multiple comparisons test. Comparisons with p-values less than 0.05 were considered significant and those less than 0.10 were considered a trend towards significance.

The conditions of data set [12]: 15-30 mg/kg; cited from earlier work.
For data set [13], the system named is female Sprague Dawley rats. Put plainly: Operant alcohol (10%) self-administration, FR2 schedule, 60-min sessions. The conditions noted are these: for Active lever presses, post-hoc comparison with vehicle / Estimated total alcohol intake, post-hoc comparison with vehicle / Number of head entries, comparison with vehicle / Number of reinforcers earned, post-hoc comparison with vehicle: 0.3, 1.0, 3.0 mg/kg IP vs vehicle, decrease, Tukey's test. The data set is classed as in vivo, rat.
Text: as §1
Drugs. Alcohol (ethyl alcohol, 190 Proof, USP grade, Koptec, King of Prussia, PA) was diluted to 10% (with RO water, w/v) and made available for consumption via standard operant chambers (described below). MG (Cayman Chemical, Ann Arbor, MI) was prepared in 20% Tween 80 (Sigma Aldrich, St. Louis, MO) in 80% sterile saline (0.9% NaCl). […] Each dose of test drug was administered via intraperitoneal (IP) injection.
Operant self-administration training and testing. Training sessions (60 min) began with the illumination of the house light and, initially, two non-contingent dipper presentations (primes) for 10 sec. The dipper access light was illuminated for the entire length of the dipper presentation time. […] When the rat pressed the active lever, the house light would turn off, dipper would protrude, and the access area light and the triple cue light above both of the levers went off. […] Stable response levels under the FR2 schedule (≤20% variability over 2 consecutive days) under 3 second dipper presentation time were required for the animal to move into the testing phase. Test sessions (60 min) were conducted once a rat met stable lever pressing criteria. Each dose of test drug and vehicle was administered (IP) 30 minutes prior to the test session in a randomized order across rats with at least 4-7 days intervening between dose administrations.
Responses obtained from the test sessions included two measures of appetitive responding (numbers of active lever presses and head entries) and two measures of consummatory responding (numbers of reinforcers earned and estimated amount of alcohol consumed in g/kg). Estimates of the amount of alcohol delivered were derived by multiplying the number of reinforcers earned by the amount of alcohol (g) per delivery (0.1 mL) of the 10% solution and divided by body weight.
Statistical Analysis. The self-administration data were analyzed with ANOVAs to compare the two measures of appetitive responding (numbers of active lever presses and head entries) and the two measures of consummatory responding (numbers of reinforcers earned and estimated total alcohol intake in g/kg).
as §2

The conditions of data set [14]: 15-30 mg/kg; cited from earlier work. The source holds these as a separate data set.
For data set [15], the system named is male rats. Conditions: male Sprague Dawley rats, 10-30 mg/kg ip vs 1, 5, 10 mg/kg i.p.; cited from earlier work.
For data set [16], the system named is cFos. Description: Immunohistochemistry: cFos activation in brain areas. The format is in vivo, rat. The conditions noted are these: 3 mg/kg IP, 90 min after open field test, vs control.
Text: as §1

Data set [17] has as its system cFos. Conditions: 2 mg/kg, i.p.; cited from earlier work.
For data set [18], the system named is female Sprague Dawley rats. The conditions noted are these: 10 mg/kg (highest dose), progressive ratio schedule; cited from earlier work.

T1 sequence (P41143 whole entry): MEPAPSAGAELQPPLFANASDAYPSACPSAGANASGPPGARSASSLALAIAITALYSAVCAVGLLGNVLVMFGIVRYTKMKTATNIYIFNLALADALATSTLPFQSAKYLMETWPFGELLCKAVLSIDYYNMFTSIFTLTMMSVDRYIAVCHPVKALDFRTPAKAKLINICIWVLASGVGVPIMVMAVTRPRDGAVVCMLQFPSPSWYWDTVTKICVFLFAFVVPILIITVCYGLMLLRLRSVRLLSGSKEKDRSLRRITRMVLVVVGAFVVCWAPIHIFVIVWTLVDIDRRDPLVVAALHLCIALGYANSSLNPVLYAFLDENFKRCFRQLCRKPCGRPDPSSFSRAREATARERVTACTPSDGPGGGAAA
T2 sequence (P32300 whole entry): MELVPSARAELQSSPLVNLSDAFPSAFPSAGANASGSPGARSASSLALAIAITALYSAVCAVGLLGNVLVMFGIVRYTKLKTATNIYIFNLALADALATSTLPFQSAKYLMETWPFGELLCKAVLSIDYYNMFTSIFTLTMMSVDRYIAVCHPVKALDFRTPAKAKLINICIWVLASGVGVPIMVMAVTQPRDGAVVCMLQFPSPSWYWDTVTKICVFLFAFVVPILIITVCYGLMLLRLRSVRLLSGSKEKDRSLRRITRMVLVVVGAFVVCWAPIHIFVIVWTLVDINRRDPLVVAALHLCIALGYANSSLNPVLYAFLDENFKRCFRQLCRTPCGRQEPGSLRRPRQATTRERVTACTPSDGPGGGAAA

On to `CC[C@@H]1CN2CC[C@@]3(O)C(=Nc4cccc(OC)c43)[C@@H]2C[C@@H]1/C(=C\OC)C(=O)OC` [7-HMG, 7-hydroxymitragynine, reference compound], for which the “Abuse liability in ICSS” value in data set [1] (rat, in vivo) is “abuse liability was not shown in ICSS”. In addition, the Self-administration by rats result in data set [2] was “readily self-administered by rats”. Further, the Alcohol consumption result in data set [3] (dose not given) was “significantly reduced alcohol consumption as did 7-HMG”.

Turning to `CC[C@@H]1CN2CCc3c([nH]c4cccc(OC)c34)[C@@H]2C[C@@H]1/C(=C\OC)C(=O)OC` [MG, mitragynine], the “Rewarding effect in ICSS” value in [1] (3.2-56 mg/kg) is “did not find evidence that MG (3.2-56 mg/kg) was rewarding”. The Heroin self-administration entry in data set [4] (3.0 mg/kg) is listed as “decreased heroin self-administration”. For the same molecule, the “Responding when substituted for heroin” value in data set [4] (0.03-3.0 mg/kg) is reported as “did not maintain responding above saline levels”. Besides, the Spontaneous locomotor activity result in [5] (5-30 mg/kg) is listed as “no effect on spontaneous locomotor activity”. In addition, the Activity entry in data set [5] (male mice, 5, 10, 15 mg/kg) is reported as “significant decrease in activity”. Besides, the “Decrease of schedule-controlled responding by MG in presence of NTX” value in data set [6] is “did not block MG's ability to decrease schedule-controlled responding”. Moreover, the Binding result in data set [7] is listed as “very low binding to delta opioid receptors”. The “Inhibition of forskolin-stimulated cAMP” value in data set [8] is recorded as “inhibits forskolin-stimulated CAMP in a concentration manner”. In [9], the Activity at receptor result was “has activity at delta opioid receptors”. Besides, in data set [10] (broad range of doses, rats trained to self-administer (i.v.) morphine), the “Self-administration when substituted for morphine” value is “did not support self-administration”. The “i.v. morphine self-administration after prior exposure” value in data set [10] (prior exposure) is “decreases i.v. morphine self-administration”. In data set [11], the “Distance traveled over 5-min time blocks” value was “tend to increase locomotor activity” and the “Total distance traveled over entire 30-min session” value is reported as “did not differ between groups”. For the same molecule, the Alcohol consumption result in [3] (30 and 100 mg/kg, i.p.) is “significantly reduced alcohol consumption”. For the same molecule, the Place conditioning result in data set [12] is “induce place conditioning”. Also, in data set [13], the “Active lever presses, post-hoc comparison with vehicle” value was “significant differences in active lever presses between vehicle and 1.0 (P<0.01) and 3.0 mg/kg (P<0.0001)”; the “Estimated total alcohol intake, post-hoc comparison with vehicle” value is “significant differences between vehicle and 1.0 (P<0.01) and 3.0 mg/kg (P<0.001)”; the “Number of head entries, comparison with vehicle” value was “significant differences between vehicle and 1.0 (P<0.01) and 3.0 mg/kg (P<0.01)”; the “Number of reinforcers earned, post-hoc comparison with vehicle” value is “significant differences between vehicle compared to 1.0 (P<0.05) and 3.0 mg/kg (P<0.0001)”. Further, the “All alcohol self-administration measures (lever presses, head entries, reinforcers, alcohol consumed)” value in [13] (0.3-3.0 mg/kg IP) is “All measures were significantly decreased”. Moreover, in data set [13] (0.3-3.0 mg/kg IP, combination vs single drugs), the “Alcohol self-administration overall, relative efficacy of drug conditions” value is on record as “more significant effects on all four measures of alcohol self-administration than NTX”. Moreover, the “Active lever presses, direct comparison between drug conditions” value in data set [13] (MG vs NTX vs MG+NTX at equal doses, 3x4 ANOVA, post-hoc) was “trend for a greater effect of MG on active lever presses at the 3 mg/kg dose”. For the same molecule, the “Substitution for morphine in drug discrimination tests” value in [14] was “partially substitute for morphine”. In addition, the Locomotor activity entry in [15] was “higher doses (10-30 mg/kg, ip) of MG but not lower doses (1, 5, 10 mg/kg, i.p.) increase locomotor activity”. For the same molecule, in [16], the “Number of cFos positive neurons in dorsal striatum” value is “did not differ from the control group”.

Take `O=C1CC[C@@]2(O)[C@H]3Cc4ccc(O)c5c4[C@@]2(CCN3CC2CC2)[C@H]1O5` [NTX, naltrexone, reference compound]: in [11], the “Distance traveled over 5-min time blocks” value was “tend to increase locomotor activity” and the “Total distance traveled over entire 30-min session” value is reported as “did not differ between groups”. Further, in data set [13], the “Active lever presses, post-hoc comparison with vehicle” value is “significant differences in active lever presses between vehicle and 1.0 (P<0.05) and 3.0 mg/kg (P<0.05)”; the “Estimated total alcohol intake, post-hoc comparison with vehicle” value is “significant differences between vehicle and 1.0 (P<0.05) and 3.0 mg/kg (P<0.05)”; the “Number of head entries, comparison with vehicle” value is given as “trend towards a main effect for Dose”; the “Number of reinforcers earned, post-hoc comparison with vehicle” value was “significant differences between vehicle compared to 1.0 (P<0.05) and 3.0 mg/kg (P<0.05)”. Moreover, in data set [13] (0.3-3.0 mg/kg IP), the “All alcohol self-administration measures (lever presses, head entries, reinforcers, alcohol consumed)” value is “All measures were significantly decreased by naltrexone except for head entries that showed a trend towards significance”. Also, the cFos expression result in data set [17] is “increases cFos expression in several brain areas including the NAC”. In data set [18], the “Active lever presses, reinforcers earned, head entries” value was “decreased active lever presses, reinforcers earned but not head entries”. Also, in data set [16], the “Number of cFos positive neurons in dorsal striatum” value is given as “did not differ from the control group”; the “Number of cFos positive neurons in nucleus accumbens (NAC)” value was “significant difference between control and NTX (P=0.002); also recorded: increased cFos levels to a similar degree to that of MG and NTX combined”.

These data come from patent US20260115173A1 (University of Houston System, priority 2022, published 2026).
